Columns and labels:
[1] = In vivo cytokine assay, plasma of Renca tumor-bearing mice; set-up: species or system mouse; IFNg production in plasma / IL-1b production in plasma / IL-6 production in plasma / IL12p70 production in plasma / IP10 production in plasma / MIP1a production in plasma / MIP1b production in plasma / TNFa production in plasma: unit not given here
Experimental: Cytokines were measured in mouse plasma harvested at 3, 6, 24, or 48 hours after treatment with compounds or ADCs using a Milliplex MAP mouse cytokine/chemokine magnetic bead panel assay kit (MCYTOMAG-70k custom 11-plex kit: MCP1, MIP1α, MIP1β, TNFα, IFNγ, IL-10, IL-12p70, IL-6, IL-1β, IP10, RANTES) and analyzed using a Luminex™ MAGPIX™ Instrument System. Values that were outside of the standard curve range (<3.2 or […]) were excluded from calculation of the mean values.

[2] = test system: DELBVR; assay: Cancer cell direct cytotoxicity assay (CellTiter-Glo), DELBVR; format: cell-based; conditions: Homo sapiens, 96 h, free compound, read-out: Compound X50
Experimental: Bystander activity of ADCs was evaluated using Renca cancer cells and THP1-Dual™ cells (InvivoGen) which contain an IRF-Lucia luciferase reporter. Cells were cultured in RPMI-1640 (Gibco) with 10% heat-inactivated fetal bovine serum, Pen-Strep (100 U/ml-100 μg/ml, Gibco), HEPES (10 mM, Gibco), sodium pyruvate (1 mM, Gibco), MEM non-essential amino acids (1×, Gibco), GlutaMAX (1×, Gibco), and beta-mercaptoethanol (55 μM, Gibco). Renca cells were plated in a 96-well flat bottom tissue culture-treated clear polystyrene plate (Corning Costar #3596) at 50,000 cells per well in 100 μL. On the day following the initial plating, 50,000 THP1-Dual™ cells were added to each well with the indicated concentration of ADC in a total volume of 200 μL. Supernatant was harvested at 48 hours post addition of the THP1-Dual™ cells. To measure Lucia reporter signal, 10 μL of supernatant was combined with 40 μL of QUANTI-Luc™ Luminescence assay reagent (Invivogen PN: rep-qlc1) in a 96-well clear flat bottom tissue culture-treated black polystyrene plate (Corning Costar PN: 3603) and read on a Perkin Elmer Envision plate reader. In some experiments, HEK 293T cells engineered to express a murine protein typically expressed by immune cells (target antigen C— an immune cell antigen) were plated as above instead of Renca tumor cells. Cancer Cell Direct Cytotoxicity Assay
Cancer cells were counted and plated in 40 μL complete growth media in 384-well, white-walled tissue culture treated plates (Corning). Cell plates were incubated at 37° C. and with 5% CO2 overnight to allow the cells to equilibrate. Stock solutions containing ADCs or free drugs were serially diluted in RPMI-1640+20% fetal bovine serum (FBS). 10 μL of each concentration were then added to each cell plate in duplicate. Cells were then incubated at 37° C. and with 5% CO2 for 96 hours, upon which, the cell plates were removed from the incubator and allowed to cool to room temperature for 30 minutes prior to analysis. […] The luminescence of the samples was measured using an EnVision Multimode plate reader (Perkin Elmer, Waltham, MA). […]

SMILES: CCn1nc(C)cc1C(=O)Nc1nc2cc(C(N)=O)cc(OC)c2n1C/C=C/Cn1c(NC(=O)c2cc(C)nn2CC)nc2cc(C(N)=O)cc(OCCCNC)c21 [Compound 12a]
- MCP-1 production in plasma ([1]; 0.6 mg/kg, dose #1, 24 h): 141.5
- MIP1a production in plasma ([1]; 0.6 mg/kg, dose #1, 24 h): <3.2
- MIP1b production in plasma ([1]; 0.6 mg/kg, dose #1, 24 h): <3.2
- RANTES production in plasma ([1]; 0.6 mg/kg, dose #1, 24 h): 46.2
- TNFa production in plasma ([1]; 0.6 mg/kg, dose #1, 24 h): 5.2
- IFNg production in plasma ([1]; 0.6 mg/kg, dose #1, 48 h): <3.2
- IL12p70 production in plasma ([1]; 0.6 mg/kg, dose #1, 48 h): <3.2
- IL-1b production in plasma ([1]; 0.6 mg/kg, dose #1, 48 h): 5.7
- IL-6 production in plasma ([1]; 0.6 mg/kg, dose #1, 48 h): 1.8
- IL-10 production in plasma ([1]; 0.6 mg/kg, dose #1, 48 h): <3.2
- IP10 production in plasma ([1]; 0.6 mg/kg, dose #1, 48 h): 218.4
- MCP-1 production in plasma ([1]; 0.6 mg/kg, dose #1, 48 h): 40.0
- MIP1a production in plasma ([1]; 0.6 mg/kg, dose #1, 48 h): 10.3
- MIP1b production in plasma ([1]; 0.6 mg/kg, dose #1, 48 h): <3.2
- RANTES production in plasma ([1]; 0.6 mg/kg, dose #1, 48 h): 5.0
- TNFa production in plasma ([1]; 0.6 mg/kg, dose #1, 48 h): <3.2
- IFNg production in plasma ([1]; 0.6 mg/kg, dose #2, 6 h): 41.5
- IL12p70 production in plasma ([1]; 0.6 mg/kg, dose #2, 6 h): 28.4
- IL-1b production in plasma ([1]; 0.6 mg/kg, dose #2, 6 h): 5.8
- IL-6 production in plasma ([1]; 0.6 mg/kg, dose #2, 6 h): 516.9
- IL-10 production in plasma ([1]; 0.6 mg/kg, dose #2, 6 h): <3.2
- IP10 production in plasma ([1]; 0.6 mg/kg, dose #2, 6 h): 3996.6
- MCP-1 production in plasma ([1]; 0.6 mg/kg, dose #2, 6 h): 9761.2
- MIP1a production in plasma ([1]; 0.6 mg/kg, dose #2, 6 h): 115.5
- MIP1b production in plasma ([1]; 0.6 mg/kg, dose #2, 6 h): 837.6
- RANTES production in plasma ([1]; 0.6 mg/kg, dose #2, 6 h): 621.6
- TNFa production in plasma ([1]; 0.6 mg/kg, dose #2, 6 h): 16.7
- IFNg production in plasma ([1]; 1.8 mg/kg, dose #1, 3 h): <3.2
- IL12p70 production in plasma ([1]; 1.8 mg/kg, dose #1, 3 h): 3.1
- IL-1b production in plasma ([1]; 1.8 mg/kg, dose #1, 3 h): 7.5
- IL-6 production in plasma ([1]; 1.8 mg/kg, dose #1, 3 h): 4314.6
- IL-10 production in plasma ([1]; 1.8 mg/kg, dose #1, 3 h): 27.3
- IP10 production in plasma ([1]; 1.8 mg/kg, dose #1, 3 h): 8222.7
- MCP-1 production in plasma ([1]; 1.8 mg/kg, dose #1, 3 h): 5805.3
- MIP1a production in plasma ([1]; 1.8 mg/kg, dose #1, 3 h): 1052.6
- MIP1b production in plasma ([1]; 1.8 mg/kg, dose #1, 3 h): 7438.6
- RANTES production in plasma ([1]; 1.8 mg/kg, dose #1, 3 h): 51.2
- TNFa production in plasma ([1]; 1.8 mg/kg, dose #1, 3 h): 46.4
- IFNg production in plasma ([1]; 1.8 mg/kg, dose #1, 6 h): 36.4
- IL12p70 production in plasma ([1]; 1.8 mg/kg, dose #1, 6 h): <3.2
- IL-1b production in plasma ([1]; 1.8 mg/kg, dose #1, 6 h): 0.7
- IL-6 production in plasma ([1]; 1.8 mg/kg, dose #1, 6 h): 543.0
- IL-10 production in plasma ([1]; 1.8 mg/kg, dose #1, 6 h): 9.9
- IP10 production in plasma ([1]; 1.8 mg/kg, dose #1, 6 h): 7589.2
- MCP-1 production in plasma ([1]; 1.8 mg/kg, dose #1, 6 h): 13861.5
- MIP1a production in plasma ([1]; 1.8 mg/kg, dose #1, 6 h): 172.2
- MIP1b production in plasma ([1]; 1.8 mg/kg, dose #1, 6 h): 1162.7
- RANTES production in plasma ([1]; 1.8 mg/kg, dose #1, 6 h): 526.2
- TNFa production in plasma ([1]; 1.8 mg/kg, dose #1, 6 h): 21.2
- IFNg production in plasma ([1]; 1.8 mg/kg, dose #1, 24 h): <3.2
- IL12p70 production in plasma ([1]; 1.8 mg/kg, dose #1, 24 h): <3.2
- IL-1b production in plasma ([1]; 1.8 mg/kg, dose #1, 24 h): 3.2
- IL-6 production in plasma ([1]; 1.8 mg/kg, dose #1, 24 h): 6.8
- IL-10 production in plasma ([1]; 1.8 mg/kg, dose #1, 24 h): <3.2
- IP10 production in plasma ([1]; 1.8 mg/kg, dose #1, 24 h): 595.6
- MCP-1 production in plasma ([1]; 1.8 mg/kg, dose #1, 24 h): 143.9
- MIP1a production in plasma ([1]; 1.8 mg/kg, dose #1, 24 h): 10.3
- MIP1b production in plasma ([1]; 1.8 mg/kg, dose #1, 24 h): <3.2
- RANTES production in plasma ([1]; 1.8 mg/kg, dose #1, 24 h): 48.8
- TNFa production in plasma ([1]; 1.8 mg/kg, dose #1, 24 h): 3.2
- IFNg production in plasma ([1]; 1.8 mg/kg, dose #1, 48 h): <3.2
- IL12p70 production in plasma ([1]; 1.8 mg/kg, dose #1, 48 h): <3.2
- IL-1b production in plasma ([1]; 1.8 mg/kg, dose #1, 48 h): 3.2
- IL-6 production in plasma ([1]; 1.8 mg/kg, dose #1, 48 h): 1.5
- IL-10 production in plasma ([1]; 1.8 mg/kg, dose #1, 48 h): <3.2
- IP10 production in plasma ([1]; 1.8 mg/kg, dose #1, 48 h): 223.5
- MCP-1 production in plasma ([1]; 1.8 mg/kg, dose #1, 48 h): 2.0
- MIP1a production in plasma ([1]; 1.8 mg/kg, dose #1, 48 h): <3.2
- MIP1b production in plasma ([1]; 1.8 mg/kg, dose #1, 48 h): <3.2
- RANTES production in plasma ([1]; 1.8 mg/kg, dose #1, 48 h): <3.2
- TNFa production in plasma ([1]; 1.8 mg/kg, dose #1, 48 h): 3.2
- IFNg production in plasma ([1]; 1.8 mg/kg, dose #2, 6 h): 80.4
- IL12p70 production in plasma ([1]; 1.8 mg/kg, dose #2, 6 h): 28.4
- IL-1b production in plasma ([1]; 1.8 mg/kg, dose #2, 6 h): 4.6
- IL-6 production in plasma ([1]; 1.8 mg/kg, dose #2, 6 h): 1681.6
- IL-10 production in plasma ([1]; 1.8 mg/kg, dose #2, 6 h): 7.7
- IP10 production in plasma ([1]; 1.8 mg/kg, dose #2, 6 h): 4151.5
- MCP-1 production in plasma ([1]; 1.8 mg/kg, dose #2, 6 h): 17185.9
- MIP1a production in plasma ([1]; 1.8 mg/kg, dose #2, 6 h): 209.9
- MIP1b production in plasma ([1]; 1.8 mg/kg, dose #2, 6 h): 1407.7
- RANTES production in plasma ([1]; 1.8 mg/kg, dose #2, 6 h): 892.1
- TNFa production in plasma ([1]; 1.8 mg/kg, dose #2, 6 h): 46.4
- systemic pro-inflammatory cytokine (IL-6 and TNF) production ([1]; plasma of tumor-bearing mice): induced robust production of IL-6 and TNF
- IC50 [2]: 111 nM
